# Literature values as cited in US7314882B2, “Bicyclic heterocycles as cannabinoid receptor modulators” (Bristol-Myers Squibb Company, priority 2005, dated 2008).
# Tested on: body weight
# Settings: 16 week trial period
smiles,measurement,value
Cc1c(C(=O)NN2CCCCC2)nn(-c2ccc(Cl)cc2Cl)c1-c1ccc(Cl)cc1 [SR-141716],body weight in human subjects,dose-dependently reduced body weight
